Target: Carbonic anhydrase 3 (Homo sapiens) (UniProt P07451)
Sequence (P07451 whole entry): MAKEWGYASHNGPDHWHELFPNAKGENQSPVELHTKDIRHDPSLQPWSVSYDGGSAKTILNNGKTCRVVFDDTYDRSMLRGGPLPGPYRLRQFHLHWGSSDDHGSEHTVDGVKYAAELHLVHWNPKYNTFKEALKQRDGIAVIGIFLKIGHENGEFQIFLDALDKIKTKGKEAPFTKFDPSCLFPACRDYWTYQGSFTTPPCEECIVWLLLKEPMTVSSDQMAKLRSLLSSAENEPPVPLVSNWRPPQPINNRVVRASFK
Description: Inhibition of human recombinant CA3 by stopped flow CO2 hydration assay

With `NS(=O)(=O)c1cc(C2(O)NC(=O)c3ccccc32)ccc1Cl` (stereo unspecified) as the compound, how does the Ki read?
Its Ki is 11 µM.
